In patent publication US20120029038A1, “ANIMAL ECTOPARASITE-CONTROLLING AGENT” (SUMITOMO CHEMICAL COMPANY, LIMITED, priority 2010, published 2012):

Experiments:
Type in all cases: in vivo
[1] = tested on: ticks (Haemaphysalis longicornis); test: Pesticidal activity on ticks in filter paper test; conditions: 48 h, 100 mg/m^2, non-blood-fed young ticks, 2 days later
Description: Each (5 mg) of the present hydrazide compounds (1), (3) to (5), (8), (10) and (13) was dissolved in acetone (10 mL), and this acetone solution (1 mL) was uniformly applied onto one side of a filter paper (TOYO No. 2; 5×10 cm; the surface area of the filter paper was 50 cm^2, and thus the amount of the present hydrazide compound applied was 100 mg/m^2). After drying, said filter paper was folded, and the both sides of the paper were clipped to form a bag. Into this bag, test ticks (Haemaphysalis longicornis, non-blood-fed young ticks, 10 ticks/group) were added, and the opening was clipped to seal the bag. Two (2) days later, the number of dead ticks was examined and the mortality was calculated by the following formula:
Mortality(%)=100×(number of dead ticks/number of ticks tested)

[2] = tested on: ticks (Haemaphysalis longicornis); test: Oral administration against dog-infested ticks; conditions: oral gelatin capsules, 20 mg/kg
Description: Each of the present hydrazide compounds (5) and (8) and Comparative compound (52) was filled into gelatin capsules, and forcibly and orally administered to a dog in a dose amount of 20 mg per 1 kg of the dog's body weight. This is referred to as a test group. On the other hand, gelatin capsules alone were orally administered to a placebo group.
Forty two (42) days later, 100 test ticks were deposited on each dog. Two (2) days after the deposit, the number of living ticks, which were infesting the dogs, was examined. When the examination was completed, all infested ticks were removed from the dogs. The infestation rate and control rate were calculated by the following formulae: […]
Method of calculating infestation rate and control rate at 44 days after the administration:
Infestation rate(%) at X days after administration=(number of living ticks at X days/number of ticks deposited)×100
Control rate(%) at X days after administration (infestation rate of placebo group at X days−infestation rate of test group at X days)/infestation rate of placebo group at X days[…]
(§1) In addition, if an infestation rate of a test group is higher than a placebo group, then the control rate is deemed to be 0%.

[3] = tested on: cat fleas (Ctenocephalides felis); test: Dropping application against cat-infested cat fleas
Description: The previous day before dropping application, 50 test fleas (cat flea adults) were deposited on a cat. Before the dropping application, infested fleas were counted.
Each (0.375 g or 1.5 g) of the present hydrazide compounds (5) and (8) and Comparative compound (52) was dissolved in diethylene glycol monoethyl ether (6.0 g) to prepare a test solution. Said test solution was directly dropped on the skin of the neck and back of the cat while pushing aside fur thereon on at a rate of 0.1 ml per 1 kg of the cat's body weight (dose amount: 5 or 20 mg/kg). This is referred to as a test group. On the other hand, diethylene glycol monoethyl ether alone was applied dropwise to a placebo group.
Two (2) days after the application, the number of living fleas, which were infesting the cats, was examined. When the examination was completed, all infested fleas were removed from the cats.
Fourteen (14) days and 28 days later, 50 test fleas were re-deposited on each cat. Two (2) days after the re-deposit, the number of living fleas, which were infesting the cats, was examined. When the examination was completed, all infested fleas were removed from the cats. The infestation rate and control rate were calculated by the following formulae: […]
(§2) (i) Method of calculating infestation rate and control rate at the initial stage (2 days) after the application:
Infestation rate(%) at X days after application=(number of living fleas at X days/number of living fleas before application)×100
(§3) Control rate(%) at X days after application=(infestation rate of test group before application−infestation rate of test group at X days)/infestation rate of test group before application×100
(§4) (ii) Method of calculating infestation rate and control rate at 16 days and 30 days after the application:
Infestation rate(%) at X days after application−(number of living fleas at X days/number of fleas deposited)×100
(§5) Control rate(%) at X days after the application (infestation rate of placebo group at X days−infestation rate of test group at X days)/infestation rate of placebo group at X days×100
as §1

[4] = tested on: cat fleas (Ctenocephalides felis); test: Oral administration against cat-infested cat fleas; conditions: oral with cat food
Description: The previous day before oral administration, 50 test fleas (cat flea adults) were deposited on a cat. Before the oral administration, infested fleas were counted.
Each of the present hydrazide compounds (5) and (8) was mixed with a cat food, and orally administered to a cat in a dose amount of 5 or 20 mg per 1 kg of the cat's body weight. This is referred to as a test group. On the other hand, the cat food alone was fed to a placebo group.
Two (2) days after the administration, the number of living fleas, which were infesting the cats, was examined. When the examination was completed, all infested fleas were removed from the cats.
Forty two (42) days later, 50 test fleas were re-deposited on each cat. Two (2) days after the re-deposit, the number of living fleas, which were infesting the cats, was examined. When the examination was completed, all infested fleas were removed from the cats. The infestation rate and control rate were calculated by the following formulae: […]
(i) Method of calculating infestation rate and control rate at the initial stage (2 days) after the administration:
Infestation rate(%) at X days after administration=(number of living fleas at X days/number of living fleas before administration)×100
Control rate(%) at X days after administration (infestation rate of test group before administration−infestation rate of test group at X days)/infestation rate of test group before administration×100
(ii) Method of calculating infestation rate and control rate at 44 days after the administration:
Infestation rate(%) at X days after administration=(number of living fleas at X days/number of fleas deposited)×100
Control rate(%) at X days after administration (infestation rate of placebo group at X days−infestation rate of test group at X days)/infestation rate of placebo group at X days×100
as §1

[5] = tested on: cat fleas (Ctenocephalides felis); test: Pesticidal activity on cat fleas in filter paper test; conditions: 48 h
Description: Each (11.3 mg) of the present hydrazide compounds (5) and (8) was dissolved in acetone (5 mL), and this acetone solution ([…]) was uniformly applied onto one side of a filter paper (TOYO No. 2; diameter 3.8 cm; the surface area of the filter paper was 11.3 cm^2, and thus the amount of the present hydrazide compound applied was 400 mg/m^2). After drying, said filter paper was placed on the inside of the lid of a 100 mL vial container. Into the vial container, 20 cat flea adults were released and the lid was closed. The vial container was inverted to force the cat fleas to contact the filter paper. Two (2) days later, the number of dead fleas was examined and the mortality was calculated by the following formula:
Mortality(%)=100×(number of dead cat fleas/number of cat fleas tested)

[6] = tested on: ticks (Haemaphysalis longicornis); test: Dropping application against dog-infested ticks; conditions: dog (beagle), 20 mg/kg
Description: The previous day before dropping application, 100 test ticks (Haemaphysalis longicornis, young ticks) were deposited on a dog (beagle). Before the dropping application, infested ticks were counted.
Each (1.5 g) of the present hydrazide compounds (5) and (8) was dissolved in diethylene glycol monoethyl ether (6.0 g) to prepare a test solution. Said test solution was directly dropped on the skin of the neck and back of the dog while pushing aside fur thereon at a rate of 0.1 ml per kg of the dog's body weight (dose amount: 20 mg/kg). This is referred to as a test group. On the other hand, diethylene glycol monoethyl ether alone was applied dropwise to a placebo group.
Two (2) days after the application, the number of living ticks, which were infesting the dogs, was examined. When the examination was completed, all infested ticks were removed from the dogs.
Fourteen (14) days and 28 days later, 100 test ticks were re-deposited on each dog. Two (2) days after the re-deposit, the number of living ticks, which were infesting the dogs, was examined. When the examination was completed, all infested ticks were removed from the dogs. The infestation rate and control rate were calculated by the following formulae: […]
as §2
Infestation rate(%) at X days after application=(number of living ticks at X days/number of living ticks before application)×100
as §3, §4
Infestation rate(%) at X days after application=(number of living ticks at X days/number of ticks deposited)×100
as §5, §1

Structure (SMILES)	mortality at 100 mg/m2 [1]	Tick control rates (%) at 44 days after the administration [2]	Flea control rates (%) at 2 days after the application ([3]; 5 mg/kg)	Flea control rates (%) at 16 days after the application ([3]; 5 mg/kg)	Flea control rates (%) at 30 days after the application ([3]; 5 mg/kg)	also measured
O=C(CC(F)(F)F)NNc1cccc(C2=NOC(c3cc(Cl)cc(Cl)c3)(C(F)(F)F)C2)c1 (centres unmarked) [(1), N′-{3-[5-(3,5-dichlorophenyl)-5-trifluoromethyl-4,5-dihydroisoxazol-3-yl]phenyl}-3,3,3-trifluoropropionohydrazide]	≥ 90%	–	–	–	–	–
O=C(CC(F)(F)F)NNc1cc(C2=NOC(c3cc(Cl)cc(Cl)c3)(C(F)(F)F)C2)ccc1F (centres unmarked) [(3), N′-{5-[5-(3,5-dichlorophenyl)-5-trifluoromethyl-4,5-dihydroisoxazol-3-yl]-2-fluorophenyl}-3,3,3-trifluoropropionohydrazide]	≥ 90%	–	–	–	–	–
O=C(CCCC(F)(F)F)NNc1cc(C2=NOC(c3cc(Cl)cc(Cl)c3)(C(F)(F)F)C2)ccc1Cl (centres unmarked) [(10), N′-{2-chloro-5-[5-(3,5-dichlorophenyl)-5-trifluoromethyl-4,5-dihydroisoxazol-3-yl]phenyl}-5,5,5-trifluoropentanohydrazide]	≥ 90%	–	–	–	–	–
CCc1ccc(C2=NOC(c3cc(Cl)cc(Cl)c3)(C(F)(F)F)C2)cc1NNC(=O)CC(F)(F)F (centres unmarked) [(13), N′-{5-[5-(3,5-dichlorophenyl)-5-trifluoromethyl-4,5-dihydroisoxazol-3-yl]-2-ethylphenyl}-3,3,3-propionohydrazide]	≥ 90%	–	–	–	–	–
CC(=O)NNc1cc(C2=NOC(c3cc(Cl)cc(Cl)c3)(C(F)(F)F)C2)ccc1Cl (centres unmarked) [Comparative compound (52), N′-{5-[5-(3,5-dichlorophenyl)-5-trifluoromethyl-4,5-dihydroisoxazol-3-yl]-2-chlorophenyl}acetohydrazide, reference compound]	–	74%	25%	87%	58%	–
O=C(CCC(F)(F)F)NNc1cc(C2=NOC(c3cc(Cl)cc(Cl)c3)(C(F)(F)F)C2)ccc1Cl (centres unmarked) [Compound (5), N′-{5-[5-(3,5-dichlorophenyl)-5-trifluoromethyl-4,5-dihydroisoxazol-3-yl]-2-chlorophenyl}-4,4,4-trifluorobutyrohydrazide]	–	89%	83%	100%	97%	Flea control rates (%) at 2 days after the administration ([4]; 5 mg/kg): 100%; Flea control rates (%) at 44 days after the administration ([4]; 5 mg/kg): 81%; Flea control rates (%) at 2 days after the administration ([4]; 20 mg/kg): 100%; Flea control rates (%) at 44 days after the administration ([4]; 20 mg/kg): 100%; mortality at 400 mg/m2 [5]: ≥ 90%; Tick control rates (%) at 2 days after the application ([6]; 2 days): 51%; Tick control rates (%) at 16 days after the application ([6]; 16 days): 100%; Tick control rates (%) at 30 days after the application ([6]; 30 days): 100%; Flea control rates (%) at 2 days after the application ([3]; 20 mg/kg): 100%; Flea control rates (%) at 16 days after the application ([3]; 20 mg/kg): 100%; Flea control rates (%) at 30 days after the application ([3]; 20 mg/kg): 100%
